From patent US20060100195A1, “Remedies for urinary frequency” (priority 2001, published 2006)

How the values were obtained:
[1] = system: pollakiuria model rats induced by acetic acid; assay: Suppression of increase in urinary frequency in rats induced by acetic acid; format: in vivo, rat; conditions: awake rats; 10 mg/kg orally; dosed 2 days after 1% acetic acid into bladder; frequency within 6 hours
Description: (ii) Experiment of Suppression of an Increase in Urinary Frequency in Rats Induced by Acetic Acid
Abdomen of a rat was subjected to a midline incision under anesthetization with pentobarbital (50 mg/kg, i.p.) and bladder was exposed. Urine in the bladder was removed using a syringe equipped with an intraocular injection needle (30 G×¾). After that, 0.5 ml of 1% acetic acid solution was injected into the bladder using a syringe equipped with an intraocular injection needle (30 G×¾) and injury was closed.
With regard to measurement of urination of the animal, the animal was placed in a metabolism cage and urination was recorded with the lapse of time using a urination measuring apparatus (K. K. Neuroscience).
When acetic acid was injected into bladder of rat, urination frequency increased continuously and pollakiuria where each urinated amount decreased was induced. Each of the test drugs was evaluated using the stimulated bladder.
Evaluation of the test drug was conducted in such a manner that the test drug was administered after 2 days from injection of acetic acid into the bladder and suppressing rates for the frequency increased within 6 hours thereafter was compared. Suppressing rate (%) of frequency by each compound was determined by the following formula. […]

[2] = system: pollakiuria model rats induced by sulprostone; assay: Suppression of increase in urinary frequency of rats induced by sulprostone; format: in vivo, rat; conditions: awake rats

Cc1cc(Cl)ccc1S(=O)(=O)NC[C@H]1C2CCC(CC2)[C@@H]1/C=C\CCCC(=O)O [(1), 6-[(2S,3S)-3-(4-chloro-2-methylphenylsulfonyl-aminomethyl)bicyclo[2.2.2]octan-2-yl]-5Z-hexenoic acid]
Inhibiting Rate (%) for Urinary Frequency, Acetic Acid-Induced Pollakiuria Model [1]: 44.3 ± 12.4 % | Inhibiting Rate (%) for Urinary Frequency, Sulprostone-Induced Pollakiuria Model ([2]; 10 mg/kg orally, sulprostone 200 μg/kg s.c. 30 minutes later, frequency over 3 hours): 58.0 ± 12.0 %

Cl.O=C(CCc1ccncc1)NNC(=O)N1Cc2ccccc2Oc2ccc(Cl)cc21 [(2), 8-chlorodibenz[b,f][1.4]oxazepine-10(11H)-carboxylic acid.2-[1-oxo-3-(4-pyridinyl)propyl]hydrazide.monohydrochloride]
Inhibiting Rate (%) for Urinary Frequency, Sulprostone-Induced Pollakiuria Model ([2]; 10 mg/kg subcutaneously, frequency over 3 hours after sulprostone): 38.2 ± 4.6 %

CCN(Cc1cc(Cl)ccc1OCC(C)C)c1ccc(C(=O)NS(=O)(=O)c2c(C)noc2C)nn1 [(3), N-(3,5-dimethylisoxazol-4-ylsulfonyl)6-[N-(5-chloro-2-(isobutyloxy)benzyl)-N-ethylamino]pyridazine-3-carboxamide]
Inhibiting Rate (%) for Urinary Frequency, Sulprostone-Induced Pollakiuria Model ([2]; 3 mg/kg subcutaneously, frequency over 3 hours after sulprostone): 49.2 ± 2.8 %
